Measurements as given in the supplement of paper PMC10307832.

How the values were obtained:
Assay in all cases: relative viability (nuclei count vs DMSO), 5 days (fraction); higher = more cells survive
[1] = compound: C1=CC=C2C(=C1)C=CC(=C2SSC3=C(C=CC4=CC=CC=C43)O)O [IPA-3] + COc1cccc2cc(-c3nc([C@H]4CC[C@H](C(=O)O)CC4)n4ncnc(N)c34)[nH]c12 [OSI-027] (partner 0.5 µM)
Summary of the method: (§1)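 For relative viability, nuclei counts in treated wells were divided by those in vehicle wells. Lung cancer cell lines had been pin-tool dosed in 1536-well plates the day after seeding and cultured for 5 days, then fixed and stained in one step (final 0.05% Triton X-100, 1% formaldehyde, 1 ug/ml Hoechst) and imaged at 4×. Doses were one drug alone or a fixed anchor-drug dose plus five library-drug doses (not always all listed) in √10 steps, and values are duplicate-plate medians.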

[2] = compound: Cc1ccc(-n2nc(C(C)(C)C)cc2NC(=O)Nc2ccc(OCCN3CCOCC3)c3ccccc23)cc1 [Doramapimod] + Cc1cc(Nc2cc(N3CCN(C)CC3)nc(Sc3ccc(NC(=O)C4CC4)cc3)n2)n[nH]1 [Tozasertib] (partner 0.1 µM)
Summary of the method: as §1

[3] = compound: Cn1c(Nc2ccc(C(F)(F)F)cc2)nc2cc(Oc3ccnc(-c4ncc(C(F)(F)F)[nH]4)c3)ccc21 [RAF265] + O=C(CCCCCCC(=O)Nc1ccccc1)NO [Vorinostat] (partner 1 µM)
Summary of the method: as §1

[4] = compound: Cn1c(Nc2ccc(C(F)(F)F)cc2)nc2cc(Oc3ccnc(-c4ncc(C(F)(F)F)[nH]4)c3)ccc21 [RAF265] + C[C@@H](Oc1cc(-c2cnn(C3CCNCC3)c2)cnc1N)c1c(Cl)ccc(F)c1Cl [Crizotinib] (partner 1 µM)
Summary of the method: as §1

Cell Line | relative viability ([1]; first compound 0.2 µM) | relative viability ([1]; first compound 0.6325 µM) | relative viability ([1]; first compound 2 µM) | relative viability ([1]; first compound 6.325 µM) | relative viability ([1]; first compound 20 µM) | relative viability ([2]; first compound 0.02 µM) | relative viability ([2]; first compound 0.06325 µM) | relative viability ([2]; first compound 0.2 µM) | relative viability ([2]; first compound 0.6325 µM) | relative viability ([2]; first compound 2 µM) | relative viability ([3]; first compound 0.01 µM) | relative viability ([3]; first compound 0.03162 µM) | relative viability ([3]; first compound 0.1 µM) | relative viability ([3]; first compound 0.3162 µM) | relative viability ([3]; first compound 1 µM) | relative viability ([4]; first compound 0.01 µM) | relative viability ([4]; first compound 0.03162 µM) | relative viability ([4]; first compound 0.1 µM) | relative viability ([4]; first compound 0.3162 µM) | relative viability ([4]; first compound 1 µM)
NCI-H522 | 0.719 | 0.619 | 0.751 | 0.764 | 0.846 | 0.501 | 0.489 | 0.579 | 0.59 | 0.471 | 0.841 | 1.02 | 1.05 | 0.872 | 0.857 |  |  |  |  | 
NCI-H1944 | 0.454 | 0.394 | 0.396 | 0.479 | 0.444 | 0.234 | 0.229 | 0.235 | 0.256 | 0.235 | 0.674 | 0.602 | 0.55 | 0.405 | 0.491 | 1.09 | 1.26 | 1.08 | 0.794 | 0.664
NCI-H727 | 0.851 | 0.703 | 0.546 | 0.613 | 0.634 | 0.633 | 0.644 | 0.559 | 0.702 | 0.536 | 1.26 | 1.16 | 1.03 | 1.24 | 0.862 | 0.8 | 0.727 | 0.967 | 0.598 | 0.283
NCI-H1650 | 0.763 | 0.515 | 0.676 | 0.724 | 0.727 | 0.416 | 0.408 | 0.395 | 0.382 | 0.357 | 0.615 | 0.587 | 0.595 | 0.655 | 0.566 | 1.03 | 0.83 | 1.15 | 0.877 | 0.913
HCC-827 | 0.842 | 0.69 | 0.773 | 0.724 | 0.703 | 0.422 | 0.414 | 0.422 | 0.375 | 0.356 | 0.866 | 0.808 | 0.543 |  | 0.704 | 0.931 | 1 | 1.01 |  | 0.871
HCC-366 | 0.978 | 0.709 | 0.802 | 0.93 | 1.07 | 0.117 | 0.129 | 0.15 | 0.0878 | 0.0672 | 0.307 | 0.344 | 0.252 | 0.205 | 0.146 | 0.487 | 0.473 | 0.739 | 0.626 | 0.404
HARA | 0.605 | 0.45 | 0.479 | 0.396 | 0.606 | 0.128 | 0.112 | 0.106 |  | 0.107 | 0.454 | 0.64 | 0.537 | 0.546 | 0.192 | 1.1 | 0.965 | 1.03 | 0.906 | 0.652
NCI-H322M | 0.597 | 0.521 | 0.569 | 0.597 | 0.61 | 0.519 | 0.487 | 0.532 | 0.497 | 0.531 | 0.875 | 0.866 | 0.516 | 0.403 | 0.348 | 0.897 | 0.839 | 0.866 | 0.281 | 0.282
LXF-289 | 0.909 | 0.722 | 0.696 | 0.847 | 0.911 | 0.207 | 0.177 | 0.177 | 0.19 | 0.203 | 0.768 | 0.752 | 0.754 | 0.606 | 0.571 | 0.849 | 0.81 | 0.872 | 0.677 | 0.684
PC-3 [JPC-3] | 0.8 | 0.774 | 0.76 | 0.655 | 0.735 | 0.914 | 0.961 | 0.938 | 1.03 | 0.92 | 0.942 | 0.78 | 1.08 | 0.455 | 0.487 | 0.989 | 0.986 | 1.06 | 0.417 | 0.63
CAL-12T | 0.884 | 0.63 | 0.676 | 0.475 | 0.656 | 0.298 | 0.341 | 0.338 | 0.272 | 0.315 | 0.781 | 0.825 | 0.61 | 0.606 | 0.372 | 0.66 | 0.456 | 0.638 | 0.441 | 0.298
COR-L 105 | 0.9 | 0.569 | 0.603 | 0.74 | 0.738 | 0.409 | 0.342 | 0.376 | 0.35 | 0.365 | 1.03 | 0.896 | 0.845 | 0.725 | 0.495 | 0.844 | 0.689 | 0.755 | 0.503 | 0.297
NCI-H2347 | 0.379 | 0.379 | 0.388 | 0.351 | 0.398 | 0.552 |  | 0.565 | 0.587 | 0.555 | 0.611 | 0.517 | 0.564 | 0.458 | 0.344 | 0.699 | 0.664 | 0.504 | 0.551 | 0.287
NCI-H2126 | 0.727 | 0.748 | 0.666 | 0.688 | 0.75 | 0.843 | 0.835 | 0.812 | 0.926 | 0.777 | 0.841 | 0.771 | 0.733 | 0.673 | 0.464 | 1.02 | 1.04 | 1.03 | 0.96 | 0.754
NCI-H838 | 0.468 | 0.437 | 0.478 | 0.429 | 0.453 | 0.299 | 0.27 | 0.285 | 0.253 | 0.257 | 0.735 | 0.716 | 0.72 | 0.691 | 0.632 | 0.807 | 0.855 | 0.989 | 0.911 | 0.718
A549 |  |  |  |  |  |  |  |  |  |  |  |  |  |  |  | 0.72 | 0.656 | 0.677 | 0.511 | 0.36
NCI-H1648 | 0.258 | 0.276 | 0.281 | 0.278 | 0.245 | 0.442 | 0.498 | 0.58 | 0.353 | 0.481 | 0.464 | 0.539 | 0.352 | 0.317 | 0.263 |  |  |  |  | 
